Patent US5776900A, “Hemoregulatory peptides” (SmithKline Beecham Corporation, priority 1995, dated 1998)
Where no end group is shown, it is not given here. [ ]: non-standard residue; d: D form. pGlu = O=C1CC[C@@H](C(=O)O)N1

Test system: human bone marrow stromal cell line, C6
Assay: Induction of colony stimulating activity by stromal cells; CSA of supernatant read in soft agar assay (CFU-C)
Assay type: cell-based
Settings: 5% C6 supernatant, Lewis rat bone marrow cells
Experimental: Induction of Colony Stimulating Activity by Stromal Cells
The human bone marrow stromal cell line, C6, is grown to confluency in plastic tissue culture dishes in RPMI-1640 medium and 5% FBS. On the day prior to the experiment this medium is changed to DMEM without added serum. To these cultures, the compounds are added for one hour, then washed from the cultures. The medium is replaced with fresh DMEM and the cells are incubated for 24 hours at 37° C., 5% CO2. After 24 hours the C6 cell culture supernatant is collected, sterile filtered, and frozen until it can be assayed for the presence of hematopoietic colony stimulating activity (CSA) as set forth below.
Bone marrow cells are obtained from Lewis rats. They are adjusted to 10^6 cells/ml in DMEM without serum. A single layer agar system utilizing the following is used: DMEM enriched with nutrients (NaHCO3, pyruvate, amino acids, vitamins, and HEPES buffer); 0.3% Bacto agar, and 20% Lewis rat serum. To this are added dilutions of C6 cell line supernatant (10-2.5%) from above along with rat bone marrow cells (final concentration=10^5 cells/ml). The agar plates are incubated at 37° C., 5% CO2 for 7-8 days. Colonies of proliferating bone marrow cells (CFU-C) are counted utilizing a microscope. The number of agar colonies counted is proportional to the amount of CSA present within the C6 bone marrow stromal cell line supernatant.

(pGlu-Glu-Asp)2 -Sub-(Lys)2 ([pGlu]ED[Sub]K; not fully specified; printed as (pGlu-Glu-Asp)2 -Sub-(Lys)2; also: dimer via suberoyl-lysine linker) [Example 2]
Hematopoietic Colony Stimulating Activity Using 5% Supernatant, Percent of Control (dose 0.01 ng/ml): 97% of Control | Hematopoietic Colony Stimulating Activity Using 5% Supernatant, Percent of Control (dose 0.1 ng/ml): 154% of Control | Hematopoietic Colony Stimulating Activity Using 5% Supernatant, Percent of Control (dose 1 ng/ml): 188% of Control | Hematopoietic Colony Stimulating Activity Using 5% Supernatant, Percent of Control (dose 10 ng/ml): 207% of Control | Hematopoietic Colony Stimulating Activity Using 5% Supernatant, Percent of Control (dose 100 ng/ml): 241% of Control | Hematopoietic Colony Stimulating Activity Using 5% Supernatant, Percent of Control (dose 1000 ng/ml): 192% of Control
